Laboratory results from patent US12304912B2, “Fused bicyclic RAF inhibitors and methods for use thereof” (Jazz Pharmaceuticals Ireland Limited, priority 2020, dated 2025).
Where two headings read alike, the source gives them in different places.

Columns and labels:
[1] = system: BRAF monomers in A375 cells; assay: A375 AlphaLISA SureFire pERK1/2 cellular assay (monomer); type: cell-based; conditions: Homo sapiens, read-out: pERK A375 (1 hr) pIC50 (converted)
In short: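 BRAF^V600E A375 melanoma cells seeded at 30,000/well in DMEM with 10% FBS, dosed without medium exchange in a 10-point series from 10 μM at 1/2-log steps, 1 h at 37 °C. Phospho-ERK1/2 (Thr202/Tyr204) measured in lysates by AlphaLISA SureFire; absolute IC50 relative to DMSO control.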

[2] = system: constitutive ERK phosphorylation in HCT-116 cells; assay: HCT-116 AlphaLISA SureFire pERK1/2 cellular assay; type: cell-based, human; conditions: Homo sapiens, read-out: pERK HCT116 (2 hr) Abs pIC50 (converted)
In short: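 Cells seeded overnight (30,000/well for 2 h, 15,000/well for 24 h), then dosed in 1% FBS medium with a 10-point series from 1 μM top, 1/3 log steps, for 2 or 24 h at 37 °C. Lysates read by AlphaLISA for Thr202/Tyr204 pERK1/2; absolute IC50 versus DMSO control.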

[3] = HCT-116, HCT116 cells, 2 hr, Abs

CCn1nc(C)cc1-c1c[nH]c(C2COc3ccc(Oc4ccnc5c4CCC(=O)N5)cc3C2)n1 (stereo not drawn) [Compound 124, 5-[3-[4-(2-ethyl-5-methyl-pyrazol-3-yl)-1H-imidazol-2-yl]chroman-6-yl]oxy-3,4-dihydro-1H-1,8-naphthyridin-2-one]
IC50 ([1]; A-375, A375 cells, 1 hr): 1070 nM
IC50 [2, 3]: 347 nM

Cn1nc(C2CC2)cc1-c1c[nH]c(C2COc3ccc(Oc4ccnc5c4CCC(=O)N5)cc3C2)n1 (stereo not drawn) [Compound 125, 5-[3-[4-(5-cyclopropyl-2-methyl-pyrazol-3-yl)-1H-imidazol-2-yl]chroman-6-yl]oxy-3,4-dihydro-1H-1,8-naphthyridin-2-one]
IC50 ([1]; A-375, A375 cells, 1 hr): 4470 nM
IC50 [2, 3]: 355 nM

Cc1cc(-c2c[nH]c(C3COc4ccc(Oc5ccnc6c5CCC(=O)N6)cc4C3)n2)n(CC(F)(F)F)n1 (stereo not drawn) [Compound 126, 5-[3-[4-[5-methyl-2-(2,2,2-trifluoroethyl)pyrazol-3-yl]-1H-imidazol-2-yl]chroman-6-yl]oxy-3,4-dihydro-1H-1,8-naphthyridin-2-one]
IC50 ([1]; A-375, A375 cells, 1 hr): 794 nM
IC50 [2, 3]: 501 nM

O=C1CCc2c(Oc3ccc4c(c3)CC(c3nc(-c5ccc(C(F)(F)F)nc5)c[nH]3)CO4)ccnc2N1 (stereo not drawn) [Compound 127, 5-[3-[4-[6-(trifluoromethyl)-3-pyridyl]-1H-imidazol-2-yl]chroman-6-yl]oxy-3,4-dihydro-1H-1,8-naphthyridin-2-one]
IC50 ([1]; A-375, A375 cells, 1 hr): 851 nM
IC50 [2, 3]: 417 nM

O=C1CCc2c(Oc3ccc4c(c3)CC(c3nc(-c5cccnc5C(F)(F)F)c[nH]3)CO4)ccnc2N1 (stereo not drawn) [Compound 128, 5-[3-[4-[2-(trifluoromethyl)-3-pyridyl]-1H-imidazol-2-yl]chroman-6-yl]oxy-3,4-dihydro-1H-1,8-naphthyridin-2-one]
IC50 ([1]; A-375, A375 cells, 1 hr): 832 nM
IC50 [2, 3]: 389 nM

Cn1ncc2ccc(-c3c[nH]c(C4COc5ccc(Oc6ccnc7c6CCC(=O)N7)cc5C4)n3)cc21 (stereo not drawn) [Compound 130, 5-[3-[4-(1-methylindazol-6-yl)-1H-imidazol-2-yl]chroman-6-yl]oxy-3,4-dihydro-1H-1,8-naphthyridin-2-one]
IC50 ([1]; A-375, A375 cells, 1 hr): 1000 nM
IC50 [2, 3]: 141 nM

O=C1CCc2c(Oc3ccc4c(c3)CC(c3nc(C5CCOCC5)c[nH]3)CO4)ccnc2N1 (stereo not drawn) [Compound 132, 5-[3-(4-tetrahydropyran-4-yl-1H-imidazol-2-yl)chroman-6-yl]oxy-3,4-dihydro-1H-1,8-naphthyridin-2-one]
IC50 ([1]; A-375, A375 cells, 1 hr): 759 nM
IC50 [2, 3]: 347 nM

O=C1CCc2c(Oc3ccc4c(c3)CC(c3nc5ccncc5[nH]3)CO4)ccnc2N1 (stereo not drawn) [Compound 134, 5-[3-(3H-imidazo[4,5-c]pyridin-2-yl)chroman-6-yl]oxy-3,4-dihydro-1H-1,8-naphthyridin-2-one]
IC50 ([1]; A-375, A375 cells, 1 hr): > 1000 nM
IC50 [2, 3]: > 1000 nM

O=C(Nc1cc(Oc2ccc3c(c2)CC(c2nc(-c4ccccc4)c[nH]2)CO3)ccn1)C1CC1(F)F (stereo not drawn) [Compound 137, 2,2-difluoro-N-[4-[3-(4-phenyl-1H-imidazol-2-yl)chroman-6-yl]oxy-2-pyridyl]cyclopropanecarboxamide]
IC50 ([1]; A-375, A375 cells, 1 hr): 191 nM
IC50 [2, 3]: 35.5 nM

O=C(Nc1cc(Oc2ccc3c(c2)CC(c2nc(-c4ccccc4)c[nH]2)CO3)ccn1)C1(F)CC1 (stereo not drawn) [Compound 138]
IC50 ([1]; A-375, A375 cells, 1 hr): 1620 nM
IC50 [2, 3]: 275 nM

O=C(Nc1cc(Oc2ccc3c(c2)CC(c2nc(-c4ccccc4)c[nH]2)CO3)ccn1)C1CC(F)(F)C1 (stereo not drawn) [Compound 139]
IC50 ([1]; A-375, A375 cells, 1 hr): 1070 nM
IC50 [2, 3]: 200 nM

c1ccc(-c2c[nH]c(C3COc4ccc(Oc5ccnc(Nc6ccccn6)c5)cc4C3)n2)cc1 (stereo not drawn) [Compound 140, 4-[3-(4-phenyl-1H-imidazol-2-yl)chroman-6-yl]oxy-N-(2-pyridyl)pyridin-2-amine]
IC50 ([1]; A-375, A375 cells, 1 hr): 5890 nM
IC50 [2, 3]: > 1000 nM

Cc1c[nH]c(-c2cc(Oc3ccc4c(c3)CC(c3nc(-c5ccccc5)c[nH]3)CO4)ccn2)n1 (stereo not drawn) [Compound 143, 2-(4-methyl-1H-imidazol-2-yl)-4-[3-(4-phenyl-1H-imidazol-2-yl)chroman-6-yl]oxy-pyridine]
IC50 ([1]; A-375, A375 cells, 1 hr): 794 nM
IC50 [2, 3]: 309 nM

O=C(Cn1ccnc1)Nc1cc(Oc2ccc3c(c2)CC(c2nc(-c4ccccc4)c[nH]2)CO3)ccn1 (stereo not drawn) [Compound 144]
IC50 ([1]; A-375, A375 cells, 1 hr): 204 nM
IC50 [2, 3]: 45.7 nM

O=C(CN1CC[C@@H](O)C1)Nc1cc(Oc2ccc3c(c2)CC(c2nc(-c4ccccc4)c[nH]2)CO3)ccn1 (stereo partly drawn) [Compound 145]
IC50 ([1]; A-375, A375 cells, 1 hr): 537 nM
IC50 [2, 3]: 166 nM

CN1CCN(CC(=O)Nc2cc(Oc3ccc4c(c3)CC(c3nc(-c5ccccc5)c[nH]3)CO4)ccn2)CC1 (stereo not drawn) [Compound 146, 2-(4-methylpiperazin-1-yl)-N-[4-[3-(4-phenyl-1H-imidazol-2-yl)chroman-6-yl]oxy-2-pyridyl]acetamide]
IC50 ([1]; A-375, A375 cells, 1 hr): 372 nM
IC50 [2, 3]: 178 nM

CN1CCC(C(=O)Nc2cc(Oc3ccc4c(c3)CC(c3nc(-c5ccccc5)c[nH]3)CO4)ccn2)CC1 (stereo not drawn) [Compound 147, 1-methyl-N-[4-[3-(4-phenyl-1H-imidazol-2-yl)chroman-6-yl]oxy-2-pyridyl]piperidine-4-carboxamide]
IC50 ([1]; A-375, A375 cells, 1 hr): 631 nM
IC50 [2, 3]: 324 nM

O=C(Nc1nccc(Oc2ccc3c(c2)CC(c2nc(-c4ccccc4)c[nH]2)CO3)n1)C1CC1 (stereo not drawn) [Compound 148, N-[4-[3-(4-phenyl-1H-imidazol-2-yl)chroman-6-yl]oxypyrimidin-2-yl]cyclopropanecarboxamide]
IC50 ([1]; A-375, A375 cells, 1 hr): 1230 nM
IC50 [2, 3]: 302 nM

O=C(CN1CCOCC1)Nc1cc(Oc2ccc3c(c2)CC(c2nc(-c4ccccc4)c[nH]2)CO3)ccn1 (stereo not drawn) [Compound 149]
IC50 ([1]; A-375, A375 cells, 1 hr): 1320 nM
IC50 [2, 3]: 316 nM

O=C(Nc1cc(Oc2ccc3c(c2)CC(c2nc(-c4ccccc4)c[nH]2)CO3)ncn1)C1CC1 (stereo not drawn) [Compound 151, N-[6-[3-(4-phenyl-1H-imidazol-2-yl)chroman-6-yl]oxypyrimidin-4-yl]cyclopropanecarboxamide]
IC50 ([1]; A-375, 1 h): 347 nM
IC50 ([2]; HCT-116, 2 h): 178 nM

O=C(CN1CCCC1)Nc1cc(Oc2ccc3c(c2)CC(c2nc(-c4ccccc4)c[nH]2)CO3)ccn1 (stereo not drawn) [Compound 152]
IC50 ([1]; A-375, A375 cells, 1 hr): 603 nM
IC50 [2, 3]: 209 nM

O=C(CN1CC(O)C1)Nc1cc(Oc2ccc3c(c2)CC(c2nc(-c4ccccc4)c[nH]2)CO3)ccn1 (stereo not drawn) [Compound 153]
IC50 ([1]; A-375, A375 cells, 1 hr): 501 nM
IC50 [2, 3]: 200 nM

O=C(Cn1cncn1)Nc1cc(Oc2ccc3c(c2)CC(c2nc(-c4ccccc4)c[nH]2)CO3)ccn1 (stereo not drawn) [Compound 154]
IC50 ([1]; A-375, A375 cells, 1 hr): 97.7 nM
IC50 [2, 3]: 28.2 nM

O=C(Nc1cc(Oc2ccc3c(c2)CC(c2nc(-c4ccc(F)cc4)c[nH]2)CO3)ccn1)C1CC1 (stereo not drawn) [Compound 155, N-[4-[3-[4-(4-fluorophenyl)-1H-imidazol-2-yl]chroman-6-yl]oxy-2-pyridyl]cyclopropanecarboxamide]
IC50 ([1]; A-375, A375 cells, 1 hr): 117 nM
IC50 [2, 3]: 60.3 nM

CC(=O)Nc1cc(Oc2ccc3c(c2)CC(c2nc(-c4ccccc4)c[nH]2)CO3)ccn1 (stereo not drawn) [Compound 156, N-[4-[3-(4-phenyl-1H-imidazol-2-yl)chroman-6-yl]oxy-2-pyridyl]acetamide]
IC50 ([1]; A-375, A375 cells, 1 hr): 178 nM
IC50 [2, 3]: 42.7 nM

CC1CC1C(=O)Nc1cc(Oc2ccc3c(c2)CC(c2nc(-c4ccccc4)c[nH]2)CO3)ccn1 (stereo not drawn) [Compound 157]
IC50 ([1]; A-375, A375 cells, 1 hr): 525 nM
IC50 [2, 3]: 112 nM

O=C1CCc2c(Oc3ccc4c(c3)CN(c3nc5cc(C(F)(F)F)ccc5[nH]3)CC4)ccnc2N1 [Compound 160]
IC50 ([1]; A-375, A375 cells, 1 hr): 871 nM
IC50 [2, 3]: 135 nM
